According to US9975903B2, “Condensed heterocyclic compound” (Takeda Pharmaceutical Company Limited, priority 2014, dated 2018):
Structures can show the parent of a compound that is named as a salt.

Biological target: T1, Human recombinant enteropeptidase (Homo sapiens, UniProt P98073)
T1 construct: purchased ITSI-Biosciences LLC #REN-260
Experiment: Human enteropeptidase inhibitory activity (Test Example 1)
Type: biochemical
Conditions: 3.3 μM test compound; inhibition rate from fluorescence intensity at 2 hours after the start of the reaction
How it was run: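 Recombinant human enteropeptidase in 50 mM Tricine pH 8.0, 0.01% Tween 20, 10 mM CaCl2, with a 5FAM/CPQ2-quenched peptide substrate (2.1 μM solution before mixing). Compound came from 1 mM DMSO stock diluted 100-fold in buffer. Fluorescence (ex 485/em 535 nm) at 2 h gave % inhibition versus no-compound and no-enzyme controls.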

T1 sequence (P98073 whole entry): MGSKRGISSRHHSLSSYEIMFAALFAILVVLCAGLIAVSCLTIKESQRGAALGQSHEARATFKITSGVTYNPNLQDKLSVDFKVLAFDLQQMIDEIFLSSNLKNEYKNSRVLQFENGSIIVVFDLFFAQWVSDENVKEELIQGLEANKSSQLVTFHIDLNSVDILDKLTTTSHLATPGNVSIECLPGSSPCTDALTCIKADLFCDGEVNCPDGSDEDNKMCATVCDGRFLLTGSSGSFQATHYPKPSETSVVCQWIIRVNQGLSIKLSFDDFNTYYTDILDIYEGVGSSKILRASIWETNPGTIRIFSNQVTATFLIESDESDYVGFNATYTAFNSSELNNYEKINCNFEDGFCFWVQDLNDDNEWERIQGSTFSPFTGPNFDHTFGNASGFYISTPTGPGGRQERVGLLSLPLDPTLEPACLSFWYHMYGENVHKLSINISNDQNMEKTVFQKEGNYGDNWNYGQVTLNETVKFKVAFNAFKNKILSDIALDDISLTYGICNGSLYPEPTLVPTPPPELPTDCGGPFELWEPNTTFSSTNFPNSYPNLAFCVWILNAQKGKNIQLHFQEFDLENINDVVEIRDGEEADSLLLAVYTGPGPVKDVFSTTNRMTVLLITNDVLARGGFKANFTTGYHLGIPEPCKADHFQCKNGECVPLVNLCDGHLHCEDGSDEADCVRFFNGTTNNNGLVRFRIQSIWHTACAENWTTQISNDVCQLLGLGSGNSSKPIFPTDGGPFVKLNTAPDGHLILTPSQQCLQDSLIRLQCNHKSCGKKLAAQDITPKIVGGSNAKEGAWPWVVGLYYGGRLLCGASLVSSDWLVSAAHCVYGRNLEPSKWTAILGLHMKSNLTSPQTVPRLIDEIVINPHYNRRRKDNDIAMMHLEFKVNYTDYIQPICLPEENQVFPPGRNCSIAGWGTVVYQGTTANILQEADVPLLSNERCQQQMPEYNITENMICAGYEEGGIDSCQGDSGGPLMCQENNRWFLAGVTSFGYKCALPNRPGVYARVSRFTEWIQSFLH

Row | 3.3 μM Inhibition [%] | Compound
1 | 98 | diethyl (4-(((10- carbamimidamido- 13-oxo-6,7,8,13- tetrahydro- dibenzo[b,f] [1,4]dioxecin-4- yl)carbonyl)amino) benzyl)phosphorate [Example 4]

Same assay, conditions: 3.3 μM test compound; inhibition rate from fluorescence intensity at 2 hours after the start of the reaction; read-out: 3.3 μM Inhibition

Row | inhibition at 3.3 µM [%] | Compound
2 | 72 | N=C(N)c1ccc2c(c1)CCc1c(CCC(=O)N[C@@H](CC(=O)O)C(=O)O)cccc1C(=O)O2 [Example 61, N-(3-(2-Carbamimidoyl-6-oxo-11,12-dihydro-6H-dibenzo[b,f]oxocin-10-yl)propanoyl)-L-aspartic acid trifluoroacetate]
3 | 101 | CN(C(=O)c1c(CCC(=O)O)ccc2c1OCCCc1cc(NC(=N)N)ccc1C(=O)O2)[C@@H](CC(=O)O)C(=O)O [Example 118, N-((10-Carbamimidamido-3-(2-carboxyethyl)-13-oxo-6,7,8,13-tetrahydrodibenzo[b,f][1,4]dioxecin-4-yl)carbonyl)-N-methyl-L-aspartic acid]
4 | 100 | N=C(N)Nc1ccc2c(c1)CCc1c(CCC(=O)N[C@@H](CC(=O)O)C(=O)O)cccc1OC2=O [Example 57, N-(3-(9-Carbamimidamido-6-oxo-11,12-dihydro-6H-dibenzo[b,f]oxocin-1-yl)propanoyl)-L-aspartic acid trifluoroacetate]
5 | 45 | N=C(N)Nc1ccc2c(c1)CCCCc1sc(C(=O)N[C@@H](CC(=O)O)C(=O)O)cc1OC2=O [Example 26, N-((9-Carbamimidamido-12-oxo-5,6,7,12-tetrahydro-4H-thieno[3,2-c][2]benzooxecin-2-yl)carbonyl)-L-aspartic acid]
6 | 101 | N=C(N)Nc1ccc2c(c1)CCCc1c(cccc1C(=O)N[C@@H](CC(=O)O)C(=O)O)OC2=O [Example 30, N-((9-Carbamimidamido-6-oxo-6,11,12,13-tetrahydrodibenzo[b,g]oxonin-1-yl)carbonyl)-L-aspartic acid trifluoroacetate]
7 | 100 | C[C@@H](C(=O)O)N(Cc1cccc(C(=O)O)c1)C(=O)c1cccc2c1OCCCc1cc(NC(=N)N)ccc1C(=O)O2 [Example 135, 3-((((10-Carbamimidamido-13-oxo-6,7,8,13-tetrahydrodibenzo[b,f][1,4]dioxecin-4-yl)carbonyl) ((1S)-1-carboxyethyl)amino)methyl)benzoic acid]
8 | 100 | N=C(N)Nc1ccc2c(c1)CCCOc1c(ccc(CCC(=O)NC(CC(=O)O)CC(=O)O)c1C(=O)O)OC2=O [Example 131, 3-((3-(10-carbamimidamido-4-carboxy-13-oxo-6,7,8,13-tetrahydro-dibenzo[b,f] [1,4]dioxecin-3-yl)propanoyl)amino) pentanedioic acid]
9 | 100 | N=C(N)Nc1ccc2c(c1)CCCOc1c(cccc1C(=O)N(Cc1ccc(C(=O)O)cc1)[C@@H](CC(=O)O)C(=O)O)OC2=O [Example 143, N-((10-Carbamimidamido-13-oxo-6,7,8,13-tetrahydrodibenzo[b,f][1,4]dioxecin-4-yl)carbonyl)-N-(4-carboxybenzyl)-L-aspartic acid]
10 | 102 | COC(=O)[C@H](CS(=O)(=O)O)NC(=O)c1cccc2c1OCCCc1cc(NC(=N)N)ccc1C(=O)O2 [Example 7, 10-carbamimidamido-4-(((2R)-1-methoxy-1-oxo-3-sulfopropan-2-yl)carbamoyl)-13-oxo-6,7,8,13-tetrahydro-dibenzo[b,f] [1,4]dioxecine]
11 | 101 | CN(CC(=O)N[C@@H](CC(=O)O)C(=O)O)C(=O)c1cccc2c1OCCCc1cc(NC(=N)N)ccc1C(=O)O2 [Example 103, N-((10-carbamimidamido-13-oxo-6,7,8,13-tetrahydro-dibenzo[b,f] [1,4]dioxecin-4-yl)carbonyl)-N-methylglycyl-L-aspartic acid]
12 | 100 | COc1cc2c(c(C(=O)N[C@@H](CC(=O)O)C(=O)O)c1)CCCCc1cc(NC(=N)N)ccc1C(=O)O2 [Example 67, N-((3-Carbamimidamido-11-methoxy-14-oxo-5,7,8,14-tetrahydro-6H-dibenzo[b,h]oxecin-9-yl)carbonyl)-L-aspartic acid]
13 | 101 | N=C(N)Nc1ccc2c(c1)CCOc1c(cccc1C(=O)N[C@@H](CC(=O)O)C(=O)O)OC2=O [Example 13, N-((9-Carbamimidamido-6-oxo-11,12-dihydro-6H-dibenzo[b,f][1,4]dioxonin-1-yl)carbonyl)-L-aspartic acid trifluoroacetate]
14 | 93 | N=C(N)Nc1ccc2c(c1)CCCOc1ccc(CCC(=O)N[C@@H](CC(=O)O)C(=O)O)cc1OC2=O [Example 78, N-(3-(10-carbamimidamido-13-oxo-6,7,8,13-tetrahydro-dibenzo[b,f] [1,4]dioxecin-2-yl)propanoyl) aspartic acid]
15 | 100 | N=C(N)Nc1ccc2c(c1)CCCOc1cc(CCC(=O)N[C@@H](CC(=O)O)C(=O)O)ccc1OC2=O [Example 49, N-(3-(10-carbamimidamido-13-oxo-6,7,8,13-tetrahydro-dibenzo[b,f] [1,4]dioxecin-3-yl)propanoyl)-aspartic acid]
16 | 101 | N=C(N)Nc1ccc2c(c1)CCCCc1c(cccc1C(=O)N[C@@H](CC(=O)O)C(=O)O)OC2=O [Example 37, N-((3-Carbamimidamido-14-oxo-5,7,8,14-tetrahydro-6H-dibenzo[b,h]oxecin-9-yl)carbonyl)-L-aspartic acid]
17 | 100 | N=C(N)Nc1ccc2c(c1)CCCOc1c(cccc1C(=O)N(CCC(=O)O)Cc1cccc(C(=O)O)c1)OC2=O [Example 134, 3-((((10-carbamimidamido-13-oxo-6,7,8,13-tetrahydro-dibenzo[b,f] [1,4]dioxecin-4-yl)carbonyl)(2-carboxyethyl)amino)methyl)benzoic acid]
18 | 100 | N=C(N)Nc1ccc2c(c1)CCCOc1c(cccc1C(=O)N(CCOCc1ccccc1)C(CC(=O)O)C(=O)O)OC2=O (stereo not drawn) [Example 137]
19 | 101 | N=C(N)Nc1ccc2c(c1)OCCOc1cc(CCC(=O)N[C@@H](CC(=O)O)C(=O)O)ccc1OC2=O [Example 53, N-(3-(3-carbamimidamido-14-oxo-6,7-dihydro-14H-dibenzo[b,h][1,4,7]trioxecin-10-yl)propanoyl) aspartic acid]
20 | 101 | N=C(N)Nc1ccc2c(c1)CCCOc1c(cccc1C(=O)Nc1ccc(S(=O)(=O)O)cc1)OC2=O [Example 5, N-(((10-carbamimidamido-13-oxo-6,7,8,13-tetrahydro-dibenzo[b,f] [1,4]dioxecin-4-yl)carbonyl)amino) benzenesulfonic acid]
21 | 101 | N=C(N)Nc1ccc2c(c1)CCCOc1c(cccc1C(=O)N(Cc1ccccc1)[C@@H](CC(=O)O)C(=O)O)OC2=O [Example 107, N-benzyl-N-((10-carbamimidamido-13-oxo-6,7,8,13-tetrahydro-dibenzo[b,f] [1,4]dioxecin-4-yl)carbonyl)-L-aspartic acid]
22 | 101 | Cc1cc2c(c(C(=O)N[C@@H](CC(=O)O)C(=O)O)c1)CCCCc1cc(NC(=N)N)ccc1C(=O)O2 [Example 72, N-((3-carbamimidamido-11-methyl-14-oxo-5,7,8,14-tetrahydro-6H-dibenzo[b,h]oxecin-9-yl)carbonyl)-L-aspartic acid]
23 | 102 | N=C(N)Nc1ccc2c(c1)CCCOc1c(cccc1C(=O)NCCC(=O)O)OC2=O [Example 88, N-((10-carbamimidamido-13-oxo-6,7,8,13-tetrahydro-dibenzo[b,f] [1,4]dioxecin-4-yl)carbonyl)-beta-alanine]
24 | 101 | N=C(N)Nc1ccc2c(c1)CCCOc1c(ccc(CCC(=O)O)c1C(=O)N(CC(=O)O)Cc1cccc(CN(CC(=O)O)CC(=O)O)c1)OC2=O [Example 148, 3-(4-((3-((bis(carboxymethyl)amino)methyl)-benzyl) (carboxymethyl)carbamoyl)-10-carbamimidamido-13-oxo-6,7,8,13-tetrahydro-dibenzo[b,f] [1,4]dioxecin-3-yl)propanoic acid]
25 | 84 | N=C(N)c1ccc2c(c1)CCc1c(C(=O)N[C@@H](CC(=O)O)C(=O)O)cccc1C(=O)O2 [Example 62, N-((2-Carbamimidoyl-6-oxo-11,12-dihydro-6H-dibenzo[b,f]oxocin-10-yl)carbonyl)-L-aspartic acid trifluoroacetate]
26 | 100 | N=C(N)c1ccc2c(c1)CCCCc1cc(C(=O)N[C@@H](CC(=O)O)C(=O)O)ccc1C(=O)O2 [Example 69, N-((10-Carbamimidoyl-14-oxo-5,7,8,14-tetrahydro-6H-dibenzo[b,h]oxecin-3-yl)carbonyl)-L-aspartic acid trifluoroacetate]
27 | 101 | N=C(N)Nc1ccc2c(c1)CCCCc1c(OCC(=O)N[C@@H](CC(=O)O)C(=O)O)cccc1OC2=O [Example 31, N-(((3-carbamimidamido-14-oxo-5,7,8,14-tetrahydro-6H-dibenzo[b,h]oxecin-9-yl)oxy)acetyl)-L-aspartic acid]
28 | 102 | N=C(N)Nc1ccc2c(c1)CCCCc1c(CCC(=O)N[C@@H](CC(=O)O)C(=O)O)cccc1OC2=O [Example 83, N-(3-(3-carbamimidamido-14-oxo-5,7,8,14-tetrahydro-6H-dibenzo[b,h]oxecin-9-yl)propanoyl)-L-aspartic acid]
29 | 101 | N=C(N)Nc1ccc2c(c1)CCCOc1c(cccc1C(=O)N(CC(=O)O)CC(=O)O)OC2=O [Example 14, 2,2′-(((10-carbamimidamido-13-oxo-6,7,8,13-tetrahydro-dibenzo[b,f] [1,4]dioxecin-4-yl)carbonyl)imino) diacetic acid]
30 | 100 | N=C(N)Nc1ccc2c(c1)CCCOc1c(CCC(=O)N[C@@H](CCC(=O)O)C(=O)O)cccc1OC2=O [Example 93, N-(3-(10-carbamimidamido-13-oxo-6,7,8,13-tetrahydro-dibenzo[b,f] [1,4]dioxecin-4-yl)propanoyl)-L-glutamic acid]
